Results on 13 compounds are retold here after PMC4368516 (PLoS Neglected Tropical Diseases, 2015).

Structures can show the parent of a compound that is named as a salt. Where two headings read alike, the source gives them in different places. Bounds are passed on as bounds.

Data set [1] has as its target T1, AaDOP2 (Aedes aegypti, UniProt H6D5H2).
T1 sequence (H6D5H2 1-476): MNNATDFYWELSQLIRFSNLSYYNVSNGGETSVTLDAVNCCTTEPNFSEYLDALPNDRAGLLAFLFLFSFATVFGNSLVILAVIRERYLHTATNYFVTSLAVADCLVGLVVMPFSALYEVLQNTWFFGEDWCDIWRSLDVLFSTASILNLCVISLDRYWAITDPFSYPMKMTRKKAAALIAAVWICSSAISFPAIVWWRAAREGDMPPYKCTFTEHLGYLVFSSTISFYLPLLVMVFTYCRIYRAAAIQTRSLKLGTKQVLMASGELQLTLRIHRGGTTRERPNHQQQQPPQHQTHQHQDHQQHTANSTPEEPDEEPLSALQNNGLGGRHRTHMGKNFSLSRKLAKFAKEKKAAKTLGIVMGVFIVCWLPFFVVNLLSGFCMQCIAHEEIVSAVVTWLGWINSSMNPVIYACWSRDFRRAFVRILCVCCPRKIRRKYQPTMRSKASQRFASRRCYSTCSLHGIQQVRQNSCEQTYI
Kind of data set: cell-based.

In data set [2] the target is T2, CqDOP2 (Culex quinquefasciatus, UniProt A0A0B5H0X6). Kind of data set: cell-based.
T2 sequence (A0A0B5H0X6 entry or part of it): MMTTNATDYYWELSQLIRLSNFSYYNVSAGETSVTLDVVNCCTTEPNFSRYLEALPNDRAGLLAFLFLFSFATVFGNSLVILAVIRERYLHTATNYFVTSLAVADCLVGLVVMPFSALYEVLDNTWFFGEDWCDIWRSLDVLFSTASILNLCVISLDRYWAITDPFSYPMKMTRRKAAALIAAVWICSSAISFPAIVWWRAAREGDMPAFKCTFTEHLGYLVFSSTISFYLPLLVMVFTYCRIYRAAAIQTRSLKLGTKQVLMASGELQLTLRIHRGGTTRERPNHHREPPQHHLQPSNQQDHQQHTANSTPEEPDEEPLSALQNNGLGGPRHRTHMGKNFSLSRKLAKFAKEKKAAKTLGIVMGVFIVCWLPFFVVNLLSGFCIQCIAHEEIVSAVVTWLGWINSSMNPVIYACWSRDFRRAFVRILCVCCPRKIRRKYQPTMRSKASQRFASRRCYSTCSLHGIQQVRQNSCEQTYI
For data set [3], the system named is C. quinquefasciatus larvae. The following applies: for earliest time debilitated larvae observed after exposure, C. quinquefasciatus: 400 μM; for larval mortality, C. quinquefasciatus, within the first 24 h: 24 h post exposure (S3 Fig); for LT50, Cq: at 400 μM.
The test system of data set [4] is Ae. aegypti larvae. The conditions noted are these: for LT50, Aa: at 400 μM.
The subject of data set [5] is C. quinquefasciatus larvae. Kind of data set: whole plant or invertebrate. The following applies: Culex quinquefasciatus, 72 h, read-out: LC50, Cq.
Data set [6] concerns Ae. aegypti larvae. Nature of the data set: whole plant or invertebrate. The following applies: Aedes aegypti, 72 h, read-out: LC50, Aa.
Data set [7] concerns the target T2, CqDOP2. The conditions noted are these: read-out: IC50 for inhibition of dopamine-stimulated cAMP response, CqDOP2; HEK293 cells; dopamine 3 μM; ±SEM.
Data set [8] has as its target T2, CqDOP2. Kind of data set: HTRF cAMP accumulation assay, agonist response of CqDOP2 stably expressed in HEK293 cells. The format is cell-based. The conditions noted are these: for EC50 fold higher than that of dopamine, CqDOP2: cAMP response. Background: In TR-FRET formats the signal depends on donor and acceptor labels being close together.
Data set [9] concerns the target T1, AaDOP2. The conditions noted are these: cAMP response.
In a further data set the test system is AmDOP2. The conditions noted are these: ref [19]; cited from earlier work.
For data set [10], the target named is T1, AaDOP2. Nature of the data set: cell-based. The source holds these as a separate data set.
A further data set concerns the target T3, Human D1 (Homo sapiens, UniProt P21728).
T3 construct: expressed in transfected cells
Nature of the data set: Inhibition of dopamine-stimulated cAMP response (HTRF) in HEK293 cells expressing human D1. The format is cell-based.

Where [11] appears, read: read-out: IC50 for inhibition of dopamine-stimulated cAMP response, Human D1.

T3 sequence (P21728 whole entry): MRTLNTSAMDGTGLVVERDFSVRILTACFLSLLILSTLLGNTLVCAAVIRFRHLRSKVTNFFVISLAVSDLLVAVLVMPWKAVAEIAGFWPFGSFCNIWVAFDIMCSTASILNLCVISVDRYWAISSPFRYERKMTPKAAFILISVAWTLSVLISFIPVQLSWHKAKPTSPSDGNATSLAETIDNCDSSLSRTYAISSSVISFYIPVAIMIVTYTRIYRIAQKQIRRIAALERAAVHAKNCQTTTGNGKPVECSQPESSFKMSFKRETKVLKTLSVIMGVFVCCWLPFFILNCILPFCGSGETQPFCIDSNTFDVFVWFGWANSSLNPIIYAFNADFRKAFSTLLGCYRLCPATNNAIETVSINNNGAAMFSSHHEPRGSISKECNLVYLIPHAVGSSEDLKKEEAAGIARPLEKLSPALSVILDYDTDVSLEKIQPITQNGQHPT

One may read the IC50 as the concentration that gives 50% inhibition. In the case of `CN1CCc2cc(Cl)c(O)cc2[C@@H](c2ccccc2)C1` [SCH23390, SCH23390 hydrochloride], the IC50 at AaDOP2 [1] is 0.709 ± 0.187 µM; at CqDOP2 [2] it was 0.745 ± 0.062 µM.
The term LC50 denotes the concentration that kills 50% of the test population. Turning to `CN(C)CC/C=C1/c2ccccc2Sc2ccc(Cl)cc21` [Chlorprothixene], in data set [3], the “earliest time debilitated larvae observed after exposure, C. quinquefasciatus” value is listed as 1 h and the “larval mortality, C. quinquefasciatus, within the first 24 h” value (“larval mortality, C. quinquefasciatus” below) is above 70%. Further, the “LT50, Cq” value in [3] (L3 larvae, ±SEM, n ≥ 3) worked out at 13.9 ± 2.0 h. For the same compound, the “larval mortality, Ae. aegypti, after 48 h” value in the data set on Ae. aegypti larvae [4] (48 h post exposure (S4 Fig)) was above 70%. Further, the “LT50, Aa” value with Ae. aegypti larvae [4] (L3 larvae, ±SEM, n ≥ 3) was found to be 22.2 ± 3.2 h. Also, the “earliest time debilitated larvae observed after exposure, Ae. aegypti” value with Ae. aegypti larvae [4] (in vivo) is given as 2 h. Moreover, in data set [5], the LC50 was found to be 41 ± 7 µM. In addition, the LC50 in the data set with Ae. aegypti larvae [6] was determined as 62 ± 9 µM.
On to “(±) butaclamol hydrochloride [(±)-Butaclamol]”, for which the IC50 on CqDOP2 [7] was 0.172 ± 0.015 µM.
Take `OCCN1CCN(CC/C=C2/c3ccccc3Sc3ccc(C(F)(F)F)cc32)CC1` [Cis-(Z)-flupenthixol, cis-(Z)-flupenthixol dihydrochloride]: the “LT50, Cq” value in data set [3] (L3 larvae, ±SEM, n ≥ 3) was 35.2 ± 6.1 h. The “LT50, Aa” value with Ae. aegypti larvae [4] (L3 larvae, ±SEM, n ≥ 3) is 42.6 ± 2.9 h. The IC50 against AaDOP2 [1] turned out to be 0.002 ± 0.0008 µM; against CqDOP2 [2], 0.002 ± 0.0005 µM. The LC50 in data set [5] came to 59 ± 22 µM; in the data set on Ae. aegypti larvae [6] it was 83 ± 25 µM.
Turning to `CN(C)CCCN1c2ccccc2CCc2ccc(Cl)cc21` [Clomipramine], the “LT50, Cq” value in data set [3] (L3 larvae, ±SEM, n ≥ 3) is 27.3 ± 3.0 h. Also, the “LT50, Aa” value in the data set with Ae. aegypti larvae [4] (L3 larvae, ±SEM, n ≥ 3) was 28.7 ± 3.1 h. For the same compound, the LC50 in data set [5] worked out at 89 ± 19 µM; in the data set with Ae. aegypti larvae [6], 88 ± 24 µM.
On to `CSc1ccc2c(c1)C(N1CCN(C)CC1)Cc1ccccc1S2` (stereo not shown) [Methiothepin], for which, in data set [3], the “earliest time debilitated larvae observed after exposure, C. quinquefasciatus” value is 1 h and the “larval mortality, C. quinquefasciatus” value is reported as above 70%. Moreover, the “LT50, Cq” value in data set [3] (L3 larvae, ±SEM, n ≥ 3) was 15.7 ± 4.9 h. The LC50 in data set [3] (read-out: LC50, Cq, L3 larvae, 72 h exposure, ±SEM, n ≥ 3) amounted to 44 ± 3 µM. The “larval mortality, Ae. aegypti, after 48 h” value in the data set with Ae. aegypti larvae [4] (48 h post exposure (S4 Fig)) is on record as above 70%. Besides, the “LT50, Aa” value in the data set on Ae. aegypti larvae [4] (L3 larvae, ±SEM, n ≥ 3) amounted to 30.6 ± 1.4 h. In addition, the LC50 with Ae. aegypti larvae [4] (read-out: LC50, Aa, L3 larvae, 72 h exposure, ±SEM, n ≥ 3) was found to be 69 ± 12 µM.
Broadly, the EC50 is the concentration that produces a half-maximal response. Turning to `NC[C@H](O)c1ccc(O)c(O)c1` [Norepinephrine, L (-)-norepinephrine bitartrate], on CqDOP2 [8], the EC50 was 52.2 ± 13.8 µM and the “EC50 fold higher than that of dopamine, CqDOP2” value is on record as “at least 10 fold”. For the same compound, the “EC50 fold higher than that of dopamine, AaDOP2” value on AaDOP2 [9] is recorded as “at least 10 fold”. The “fold more agonist required than dopamine, AmDOP2” value with AmDOP2 was “approximately 25 fold”. The compound further came in with an EC50 at AaDOP2 [10] of 30.3 ± 7.5 µM.
`CN(C)CCC=C1c2ccccc2CCc2ccccc21` [Amitriptyline, amitriptyline hydrochloride]: the IC50 amounted to 0.69 ± 0.052 µM against Human D1, 0.0064 ± 0.002 µM on AaDOP2 [1] and 0.0033 ± 0.0004 µM on CqDOP2 [2]. Besides, in [3] (L3 larvae, ±SEM, n ≥ 3), the “LT50, Cq” value came out at 41.7 ± 2.1 h. Also, in the data set on Ae. aegypti larvae [4] (L3 larvae, ±SEM, n ≥ 3), the “LT50, Aa” value came out at 47.8 ± 6.3 h. Besides, the LC50 in data set [5] came out at 165 ± 37 µM; in the data set with Ae. aegypti larvae [6], 208 ± 137 µM.
On to `CN1CCN2c3ccccc3Cc3ccccc3C2C1` (stereo not shown) [Mianserin], for which, in data set [3] (L3 larvae, ±SEM, n ≥ 3), the “LT50, Cq” value stood at 17.9 ± 3.0 h. In the data set on Ae. aegypti larvae [4] (L3 larvae, ±SEM, n ≥ 3), the “LT50, Aa” value amounted to 22.8 ± 1.3 h.
As to `CNC[C@H](O)c1ccc(O)c(O)c1` [Epinephrine, (-)-epinephrine bitartrate], on CqDOP2 [8], it took 80.8 ± 21 µM to reach a half-maximal effect (EC50) and the “EC50 fold higher than that of dopamine, CqDOP2” value was “at least 10 fold”. The “EC50 fold higher than that of dopamine, AaDOP2” value at AaDOP2 [9] is “at least 10 fold”. The compound further showed an EC50 at AaDOP2 [10] of 41.1 ± 10.5 µM.
On to `CCNC(=O)N1CCN(CCCC(c2ccc(F)cc2)c2ccc(F)cc2)CC1` [Amperozide, amperozide hydrochloride], for which the values for the IC50 at Human D1 (setting [11]), at AaDOP2 [1] and against CqDOP2 [2] were 16.2 ± 4.77 µM, 0.469 ± 0.071 µM and 0.248 ± 0.042 µM, respectively. The “LT50, Cq” value in data set [3] (L3 larvae, ±SEM, n ≥ 3) amounted to 25.4 ± 1.5 h. Also, the “LT50, Aa” value in the data set on Ae. aegypti larvae [4] (L3 larvae, ±SEM, n ≥ 3) turned out to be 46.6 ± 6.2 h. Also, the LC50 turned out to be 135 ± 35 µM in data set [5] and 161 ± 20 µM in the data set on Ae. aegypti larvae [6].
Turning to `CN1CC2c3ccccc3Oc3ccc(Cl)cc3C2C1` (stereo not shown) [Asenapine, asenapine maleate], the figures for the IC50 at Human D1 (setting [11]), on AaDOP2 [1] and against CqDOP2 [2] were 0.101 ± 0.002 µM, 0.0007 ± 0.0002 µM and 0.0008 ± 3e-05 µM, respectively. In addition, the “LT50, Cq” value in data set [3] (L3 larvae, ±SEM, n ≥ 3) turned out to be 24.2 ± 1.3 h. Also, the “LT50, Aa” value in the data set with Ae. aegypti larvae [4] (L3 larvae, ±SEM, n ≥ 3) is 36.4 ± 1.6 h. Besides, the “larval mortality, Ae. aegypti, after 48 h” value with Ae. aegypti larvae [4] (in vivo) is given as above 70%. In addition, the LC50 came to 50 ± 10 µM in [5] and 102 ± 22 µM in the data set on Ae. aegypti larvae [6].
On to `CN(C)CCCN1c2ccccc2Sc2ccc(Cl)cc21` [Chlorpromazine, chlorpromazine hydrochloride], for which the “earliest time debilitated larvae observed after exposure, C. quinquefasciatus” value in data set [3] is given as 1 h. For the same compound, the “larval mortality, C. quinquefasciatus” value in data set [3] is recorded as above 70%. Also, the “LT50, Cq” value in [3] (L3 larvae, ±SEM, n ≥ 3) was 16.7 ± 1.1 h. The “larval mortality, Ae. aegypti, after 48 h” value in the data set on Ae. aegypti larvae [4] (48 h post exposure (S4 Fig)) was above 70%. Moreover, the “LT50, Aa” value in the data set on Ae. aegypti larvae [4] (L3 larvae, ±SEM, n ≥ 3) was found to be 26.1 ± 0.9 h. The IC50 is 0.019 ± 0.001 µM on AaDOP2 [1] and 0.0074 ± 0.002 µM on CqDOP2 [2]. Moreover, the LC50 was 64 ± 9 µM in data set [5] and 88 ± 9 µM with Ae. aegypti larvae [6].
